According to article PMC8308786, “Discovery and Characterization of a Novel MASTL Inhibitor MKI-2 Targeting MASTL-PP2A in Breast Cancer Cells and Oocytes” (Pharmaceuticals, 2021):

Molecular target: T1, MASTL (Homo sapiens, UniProt Q96GX5)
T1 construct: recombinant GST-tagged-MASTL
T1 sequence (Q96GX5 1-879): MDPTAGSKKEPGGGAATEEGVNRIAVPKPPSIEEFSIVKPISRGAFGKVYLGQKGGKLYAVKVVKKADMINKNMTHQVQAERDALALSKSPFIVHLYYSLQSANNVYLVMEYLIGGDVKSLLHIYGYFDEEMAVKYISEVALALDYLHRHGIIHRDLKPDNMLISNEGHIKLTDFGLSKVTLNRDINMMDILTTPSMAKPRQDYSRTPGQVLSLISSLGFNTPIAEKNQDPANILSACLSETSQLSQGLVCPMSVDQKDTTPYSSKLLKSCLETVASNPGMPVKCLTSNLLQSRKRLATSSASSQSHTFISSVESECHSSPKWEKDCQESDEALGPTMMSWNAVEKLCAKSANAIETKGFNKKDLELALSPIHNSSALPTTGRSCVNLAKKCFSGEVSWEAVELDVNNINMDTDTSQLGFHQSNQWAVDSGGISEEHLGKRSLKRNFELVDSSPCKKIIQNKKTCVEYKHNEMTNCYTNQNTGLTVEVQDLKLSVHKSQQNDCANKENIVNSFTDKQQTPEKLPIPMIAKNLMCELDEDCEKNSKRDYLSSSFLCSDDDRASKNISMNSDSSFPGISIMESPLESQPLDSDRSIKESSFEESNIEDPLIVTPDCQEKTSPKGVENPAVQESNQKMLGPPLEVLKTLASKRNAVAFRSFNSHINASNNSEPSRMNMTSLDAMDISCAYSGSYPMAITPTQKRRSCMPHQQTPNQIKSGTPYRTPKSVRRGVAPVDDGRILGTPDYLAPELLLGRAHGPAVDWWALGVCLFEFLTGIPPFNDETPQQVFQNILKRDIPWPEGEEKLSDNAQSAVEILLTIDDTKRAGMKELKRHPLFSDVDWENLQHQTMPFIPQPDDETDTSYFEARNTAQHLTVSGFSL
Experiment: in vitro kinase assay with recombinant GST-MASTL and His-ENSA substrate; also HTRF KinEASE and ADP-Glo
Type: biochemical

## N#CCc1ccc(Nc2nc(Nc3cc(C4CC4)[nH]n3)c3ccccc3n2)cc1 [#248, 2-(4-((4-((5-cyclopropyl-1H-pyrazol-3-yl)amino)quinazolin-2-yl)amino)phenyl)acetonitrile]
  IC50: 0.0374 µM
